According to patent US9120820B2, “Fluorescent molecular probes for use in assays that measure test compound competitive binding with SAM-utilizing proteins” (CAYMAN CHEMICAL COMPANY, INCORPORATED, priority 2011, dated 2015):

Molecular target: T1, NSD2 (Homo sapiens, UniProt O96028)
T1 construct: purchased Cayman 10758
T1 sequence (O96028 1-1365): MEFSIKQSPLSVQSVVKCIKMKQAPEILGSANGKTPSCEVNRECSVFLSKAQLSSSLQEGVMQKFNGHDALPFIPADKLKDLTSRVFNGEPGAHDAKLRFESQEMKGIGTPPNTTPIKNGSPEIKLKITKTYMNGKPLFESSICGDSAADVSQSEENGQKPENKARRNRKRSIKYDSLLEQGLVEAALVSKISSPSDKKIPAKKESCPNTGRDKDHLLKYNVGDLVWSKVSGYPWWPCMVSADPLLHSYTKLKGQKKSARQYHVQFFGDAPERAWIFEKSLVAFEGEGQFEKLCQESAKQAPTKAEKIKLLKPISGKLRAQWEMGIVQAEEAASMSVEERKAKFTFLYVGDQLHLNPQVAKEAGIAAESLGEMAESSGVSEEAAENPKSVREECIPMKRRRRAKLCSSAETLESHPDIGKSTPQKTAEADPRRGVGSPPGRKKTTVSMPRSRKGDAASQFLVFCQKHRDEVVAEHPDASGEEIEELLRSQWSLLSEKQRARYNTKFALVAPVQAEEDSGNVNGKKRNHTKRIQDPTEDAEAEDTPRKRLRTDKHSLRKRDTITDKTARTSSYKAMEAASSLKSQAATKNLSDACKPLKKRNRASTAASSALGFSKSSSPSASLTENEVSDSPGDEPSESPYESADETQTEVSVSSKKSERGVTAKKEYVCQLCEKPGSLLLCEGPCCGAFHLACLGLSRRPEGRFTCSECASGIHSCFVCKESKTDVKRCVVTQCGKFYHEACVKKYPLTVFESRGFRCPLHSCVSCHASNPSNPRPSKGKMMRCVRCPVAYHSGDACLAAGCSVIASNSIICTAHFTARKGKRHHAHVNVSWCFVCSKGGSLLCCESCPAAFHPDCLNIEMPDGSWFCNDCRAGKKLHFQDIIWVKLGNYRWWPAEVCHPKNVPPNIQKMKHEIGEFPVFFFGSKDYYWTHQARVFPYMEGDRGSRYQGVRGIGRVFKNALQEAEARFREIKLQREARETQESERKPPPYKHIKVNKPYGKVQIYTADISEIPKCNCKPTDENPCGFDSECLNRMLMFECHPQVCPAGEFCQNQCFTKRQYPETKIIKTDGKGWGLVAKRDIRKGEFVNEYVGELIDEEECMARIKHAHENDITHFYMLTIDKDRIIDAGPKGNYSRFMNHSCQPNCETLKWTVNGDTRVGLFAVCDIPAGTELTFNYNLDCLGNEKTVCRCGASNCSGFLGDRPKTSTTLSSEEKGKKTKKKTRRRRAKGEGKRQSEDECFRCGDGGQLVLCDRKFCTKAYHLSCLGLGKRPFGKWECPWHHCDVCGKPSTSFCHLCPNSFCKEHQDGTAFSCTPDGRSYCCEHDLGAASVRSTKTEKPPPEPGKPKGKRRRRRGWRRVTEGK
Experiment: Fluorescence polarization saturation binding of fluorescent probe to NSD2
Experimental: Methods: The experiment was performed once, with two replicate wells for all methyltransferases per condition. The sole exception to this is NSD2 (see details below). The assay was performed in a ½ area, black, 96-well plate (Corning #3686) in a final volume of 30 μL. Methyltransferases (Table 1) were serially diluted two-fold in FP buffer (Cayman Catalog #600028) and 15 μL of a given dilution were added per well to the assay plate. Fifteen microliters of sinefungin probe 1A (10 nM) were added to each well, giving a final sinefungin probe 1A concentration of 5 nM. This concentration of sinefungin probe 1A was chosen because it had at least a 10-fold increase in fluorescence (excitation max 575 nm/emission max 615 nm) over background (buffer). The mixture was incubated in the dark at room temperature for 30 minutes and its fluorescence polarization was read using a BioTek Synergy 4.
For NSD2, the assay was performed essentially as above, but with the following changes. The assay was performed in a 20 μL total volume (10 μL NSD2/10 μL sinefungin probe 1) in low-volume, black, 384-well plates (Nunc #264705). The concentrations of sinefungin probe 1A and methyltransferase were identical to that of the 96-well format. The assay was performed once with three replicate wells per condition.

Kd (NSD2, saturation-binding format, read-out: Sinefungin Probe 1A Affinity): > 2000 nM
Structure (SMILES): Nc1ncnc2c1ncn2[C@@H]1O[C@H](C[C@@H](N)CC[C@H](N)C(=O)O)[C@@H](OCc2cnnn2CCCCCCNC(=O)OC2CCN(C(=O)c3ccccc3C3=c4cc5c6c(c4Oc4c3cc3c7c4CCCN7CCC3)CCC[N+]=6CCC5)CC2)[C@H]1O [Sinefungin Probe 1A]
measurable affinity for the probe (Example 8, NSD2, 5 nM probe, 384-well, FIG. 2): only SET7/9 and G9a displayed measurable affinity
